# From publication PMC11362529, “Exploring the neuroprotective potential of Nrf2-pathway activators against annonacin toxicity” (Scientific Reports, 2024)
# Tests used:
# Format in all cases: cell-based, human
# LUHMES cells = assay: Protective effects against annonacin toxicity, calcein viability assay; settings: with 20 nM annonacin, glucose-reduced medium, 48 h; 40 μM Ki 696–2, 1 μM HPP-D, 15 μM ezetimibe, 4 μM licochalcone A; most protective or highest non-toxic concentration for the others
# Experimental: The calcein AM green dye (Thermo Fisher Scientific) was diluted in DMSO to obtain a 1 mM stock solution. The stock solution was further diluted in HBSS (Hanks' balanced salt solution), immediately before incubation, to achieve a final working concentration of 1 μM in the well. The medium was removed, the cells were washed once with warm HBSS, and 200 µl of calcein working solution was added to each well. For background correction, 200 µl of calcein working solution was added to a well without cells (background control). After 30 min of incubation at 37 °C, the calcein solution was removed and the cells were washed once with HBSS. Cells were lysed in a 200 µl volume of 1% Triton™ X-100 in PBS (phosphate buffered saline) and the lysate transferred to a 96‐well black plate for the readout. The fluorescence signal was measured on a FLUOstar® Omega plate reader (BMG LabTech, Ortenberg, Germany) at λ Ex/Em = 485/530 nm and data was analyzed with the MARS data analysis software (BMG LabTech). For background correction, we subtracted the background control signal from the measured values of all experimental conditions. Data were expressed as percentage of viability relative to the control (DMSO-treated) condition.
# For pharmacological treatments, we acquired several previously described Nrf2-pathway activators: ezetimibe (Cayman), licochalcone A (MedChem Express, New Jersey, NJ, USA), bardoxolone methyl, saracatinib and PP2 (AbMole BioScience Inc., Houston, TX, USA). The enantiomers Ki 696–1 and Ki 696–2, and the compound HPP-D were kindly provided by Orion Pharma (Espoo, Finland). All compounds were dissolved in DMSO and stored in small aliquots at -80 °C to avoid freeze–thaw cycles. Compound general toxicity was determined on PLO/FN double-coated 48-well microplates as follows: after 4 days of differentiation, LUHMES cells were incubated with the different Nrf2-pathway activators at concentrations ranging from 1 nM to 100 µM, for 96 h. The cell viability was assessed by calcein assay on day 8 of differentiation. Non-toxic concentrations of the Nrf2-pathway activators were selected and used in the pharmacological treatments, in combination with 20 nM of annonacin, in glucose-reduced differentiation medium, over a period of 48 h, similar to an in vitro model reported before. The protective effects of Nrf2-pathway activators against annonacin toxicity were determined in terms of cell viability with the calcein assay.
# 4R-tau transcripts = assay: 4R-tau mRNA and 4R-/3R-tau ratio by RT-qPCR; settings: 48 h
# Experimental: LUHMES cells were seeded on PLO/FN coated 6-well microplates and the pharmacological treatments were performed as previously explained. The cells were washed in HBSS, prior to being collected for mRNA isolation (RNeasy® Plus Mini Kit, Qiagen, Venlo, Netherlands), following the manufacturer’s instructions. The mRNA concentrations were determined on a Nano-Drop 2000c (Thermo Fisher Scientific) and 1 µg of mRNA was reverse-transcribed into cDNA with the iScript™ Reverse Transcription Supermix for RT-qPCR Kit (Bio-Rad) on a thermal cycler (SensoQuest, Göttingen, Germany). Real-time PCR was performed using SYBR™ Select Master Mix for CFX (Thermo Fisher Scientific) with 30 ng cDNA and 0.4 µM of primers against the respective target genes (Supplementary Table S3), in a 20 µl total volume, on a CFX96 Touch™ Real-Time Cycler (Bio-Rad). The relative expression of mRNA was calculated using the CFX Manager software (ΔΔCt method) from Bio-Rad, and the Ct values of the target-genes were normalized to the reference genes RPL22 and UBQLN1. The data were reported as fold change relative to the control (DMSO-treated) condition.
# SRSF2/SC-35 = assay: pSC-35 speckle immunofluorescence; settings: 48 h
# Experimental: For immunostaining, cells were seeded in differentiation medium, on 24-well microplates containing PLO/FN-coated 13 mm Ø coverslips, and treated for 48 h as previously described. On the readout day, the medium was removed and cells were fixed, permeabilized and blocked as before. Primary antibody dilutions were made in 1.5% NHS in PBS (Supplementary Table S1) and incubated overnight at 4 °C. On the following day, the coverslips were washed three times with PBS and incubated with host-specific fluorescence secondary antibodies (Supplementary Table S1), for 2 h at RT, protected from light. After another three washes with PBS, cell nuclei were stained with 1:5,000 DAPI (4’,6-diamidino-2-phenylindole, Thermo Fisher Scientific) in PBS, for 15 min at RT. The coverslips were mounted in mowiol and left to dry for 24 h before imaging. Image acquisition for FI quantification was done with a 200 × magnification (20 × objective, 10 × intermediate magnification), or 400x (40 × objective, 10 × intermediate magnification) in the case of pSC-35 and AT8 immunostaining, on a fluorescence microscope Leica-DFC9000GTC (Leica). In the case of phospho-tau AT8, Z-stacks consisting of 18 plane images with a step size of 1 μm were acquired. The image acquisition parameters were identical for all conditions. Quantification of 8-OHdG (8-hydroxyguanosine) FI and tau species was performed using the ImageJ software. Ten-to-fifteen images per condition across triplicates, from different view fields, were used for this purpose. Briefly, TIFF exported images were submitted to background subtraction using the rolling ball method with a radius of 50 pixels. For 8-OHdG analysis, a channel-specific threshold was applied to all images to define the ROI and FI was measured and normalized to the cell number, determined by the DAPI channel. The average value of the different view fields per experimental condition was taken and reported as fold change compared to the control (DMSO-treated) condition. For the analysis of phospho-tau AT270 and pan-tau reactivity, channel specific thresholds were applied to all images. The DAPI channel was used to define nuclei from viable cells, by selecting particles with a size above 15 µm^2 and a circularity of 0.3–1.0. […] These masks were used to quantify the number of somas expressing each of these tau species, as well as the respective FI. The number of AT270-positive somas was divided by the number of pan-tau-positive somas and expressed as a percentage. […] For quantification of pSC-35 and AT8 speckle number and FI, we used CellProfiler™ 4 (https://cellprofiler.org/, Broad Institute Inc., Cambridge, MA, USA) speckle counting pipeline. […]
# [1] = 15 μM ezetimibe + 20 nM annonacin
compound,measurement,setting,value
Cn1c(Nc2nc3ccc(C(F)(F)F)cc3s2)nc2cc(C(=O)NCCOCCO)ccc21 [HPP-D],reduction of annonacin toxicity,LUHMES cells,21%
CCCCCCCCCCCC[C@@H](O)[C@H]1CC[C@H]([C@H](O)CCCC[C@H](O)CCCCC[C@@H](O)CC2=CC(C)OC2=O)O1 (some centres unmarked) [annonacin],4R-/3R-tau isoforms ratio,4R-tau transcripts; 20 nM annonacin alone,3.5 fold over control
same,upregulation of 4R-tau transcripts over control cells,4R-tau transcripts; 20 nM annonacin alone,twofold
same,number of pSC-35 speckles per nucleus,SRSF2/SC-35; 20 nM annonacin alone,no changes in the number of pSC-35 speckles per nucleus
same,pSC-35 fluorescence intensity,SRSF2/SC-35; 20 nM annonacin alone,no changes
O=C1[C@H](CC[C@H](O)c2ccc(F)cc2)[C@@H](c2ccc(O)cc2)N1c1ccc(F)cc1 [ezetimibe],reduction of annonacin toxicity,LUHMES cells,33%
same,4R-/3R-tau isoforms ratio,4R-tau transcripts; [1],remained similar to healthy control cells
same,4R-tau transcripts,4R-tau transcripts; [1],prevented the annonacin-induced upregulation of 4R-tau transcripts
same,number of pSC-35 speckles per nucleus,SRSF2/SC-35; [1],non-significant reduction of the number of speckles per nucleus
same,pSC-35 fluorescence intensity per nucleus,"SRSF2/SC-35; 15 μM ezetimibe + 20 nM annonacin, vs control",twofold
C=CC(C)(C)c1cc(/C=C/C(=O)c2ccc(O)cc2)c(OC)cc1O [licochalcone A],reduction of annonacin toxicity,LUHMES cells,34.6%
